The values below come from patent US12209087B2, “AKT1 modulators” (Alterome Therapeutics, Inc., priority 2022, dated 2025).

The target of the first test is T1, full length AKT E17K (Homo sapiens, UniProt P31749, E17K).
T1 construct: host or cells: HEK-293 (ATCC CRL-1573)
T1 sequence (P31749 whole entry E17K): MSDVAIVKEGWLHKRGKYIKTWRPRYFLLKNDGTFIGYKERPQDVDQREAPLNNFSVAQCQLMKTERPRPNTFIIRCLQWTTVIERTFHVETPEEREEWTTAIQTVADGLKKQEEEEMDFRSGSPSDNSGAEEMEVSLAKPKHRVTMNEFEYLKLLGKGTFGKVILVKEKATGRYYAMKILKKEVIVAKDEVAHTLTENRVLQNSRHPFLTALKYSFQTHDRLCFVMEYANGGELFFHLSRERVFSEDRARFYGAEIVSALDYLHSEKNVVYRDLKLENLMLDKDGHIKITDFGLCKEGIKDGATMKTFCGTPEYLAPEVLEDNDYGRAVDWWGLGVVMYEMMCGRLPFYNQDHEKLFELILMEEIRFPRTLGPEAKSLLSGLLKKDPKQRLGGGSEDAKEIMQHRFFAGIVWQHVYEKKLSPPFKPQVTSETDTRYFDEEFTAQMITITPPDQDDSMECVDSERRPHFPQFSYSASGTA
Briefly: NanoBRET Target Engagement (TE) Assay. It is filed as cell-based. The note with it: competitive displacement of tracer in cells, read-out: AKT1 E17K IC50. Summed up:
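Compound and tracer incubated 2 h before luminescence at donor 450 nm and acceptor 600 nm, with extracellular signal inhibited. EC50 by sigmoidal variable-slope regression.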
(In BRET a luciferase serves as donor, and the signal depends on an acceptor being close.)
The term IC50 denotes the point on the concentration scale where inhibition reaches its midpoint. `N#Cc1nccc(NC2CCN(Cc3ccc(-n4c(-c5cccnc5N)nc5ccc([C@H]6CCOC6)nc54)cc3)CC2)n1` (single isomer, unassigned) [Example 507]: the IC50 was less than 15 nM.

In the case of `N#Cc1nccc(N2CCC3(CC2)CN(Cc2ccc(-n4c(-c5cccnc5N)nc5ccc(-c6ccc(F)cc6)nc54)cc2)C3)n1` [Example 491, 4-(2-(4-(2-(2-Aminopyridin-3-yl)-5-(4-fluorophenyl)-3H-imidazo[4,5-b]pyridin-3-yl)benzyl)-2,7-diazaspiro[3.5]nonan-7-yl)pyrimidine-2-carbonitrile], the IC50 is less than 15 nM.

On to `N#Cc1nccc(NC2CCN(Cc3ccc(-n4c(-c5cccnc5N)nc5ccc(-c6ccc(OCF)cn6)nc54)cc3)CC2)n1` [Example 580, 4-((1-(4-(2-(2-Aminopyridin-3-yl)-5-(5-(fluoromethoxy)pyridin-2-yl)-3H-imidazo[4,5-b]pyridin-3-yl)benzyl)piperidin-4-yl)amino)pyrimidine-2-carbonitrile], for which the IC50 is less than 15 nM.

In the case of `COc1cc(-c2ccc3nc(-c4cccnc4N)n(-c4ccc(CN5CCC(Nc6ccnc(C#N)n6)CC5)cc4)c3n2)ccc1F` [Example 439, 4-((1-(4-(2-(2-Aminopyridin-3-yl)-5-(4-fluoro-3-methoxyphenyl)-3H-imidazo[4,5-h]pyridin-3-yl)benzyl)piperidin-4-yl)amino)pyrimidine-2-carbonitrile], the IC50 was less than 15 nM.

Regarding `N#Cc1nccc(NC2CCN(Cc3ccc(-n4c(-c5cccnc5N)nc5ccc(C6CCCC6)nc54)cc3)CC2)n1` [Example 388, 4-((1-(4-(2-(2-Aminopyridin-3-yl)-5-cyclopentyl-3H-imidazo[4,5-b]pyridin-3-yl)benzyl)piperidin-4-yl)amino)pyrimidine-2-carbonitrile], the IC50 is less than 15 nM.

Take `N#Cc1nccc(NC2CC3(CCN(Cc4ccc(-n5c(-c6cccnc6N)nc6ccc(-c7ccccc7)nc65)cc4)CC3)C2)n1` [Example 362, 4-((7-(4-(2-(2-Aminopyridin-3-yl)-5-phenyl-3H-imidazo[4,5-b]pyridin-3-yl)benzyl)-7-azaspiro[3.5]nonan-2-yl)amino)pyrimidine-2-carbonitrile]: the IC50 is less than 15 nM.

On to `N#Cc1nccc(NC2CCN(Cc3ccc(-n4c(-c5cccnc5N)nc5ccc(-c6cccnc6)nc54)cc3)CC2)n1` [Example 431, 4-((1-(4-(2-(2-Aminopyridin-3-yl)-5-(pyridin-3-yl)-3H-imidazo[4,5-b]pyridin-3-yl)benzyl)piperidin-4-yl)amino)pyrimidine-2-carbonitrile], for which the half-inhibitory concentration (IC50) is less than 15 nM.

In the case of `N#Cc1nccc(NC2CCN(Cc3ccc(-n4c(-c5cccnc5N)nc5ccc(-c6cccc(N)c6)nc54)cc3)CC2)n1` [Example 517, 4-((1-(4-(5-(3-Aminophenyl)-2-(2-aminopyridin-3-yl)-3H-imidazo[4,5-b]pyridin-3-yl)benzyl)piperidin-4-yl)amino)pyrimidine-2-carbonitrile], the IC50 is less than 15 nM.

Consider `N#Cc1nccc(NC2CCN(Cc3ccc(-n4c(-c5nccnc5N)nc5ccc(-c6cn(CF)nn6)nc54)cc3)CC2)n1` [Example 628, 4-((1-(4-(2-(3-Aminopyrazin-2-yl)-5-(1-(fluoromethyl)-1H-1,2,3-triazol-4-yl)-3H-imidazo[4,5-b]pyridin-3-yl)benzyl)piperidin-4-yl)amino)pyrimidine-2-carbonitrile], for which the IC50 was less than 15 nM.

Regarding `CN1CCN(c2ccc3nc(-c4cccnc4N)n(-c4ccc(CN5CCN(c6ccnc(C#N)n6)CC5)cc4)c3n2)CCC1=O` [Example 345, 4-(4-(4-(2-(2-Aminopyridin-3-yl)-5-(4-methyl-5-oxo-1,4-diazepan-1-yl)-3H-imidazo[4,5-b]pyridin-3-yl)benzyl)piperazin-1-yl)pyrimidine-2-carbonitrile], the IC50 lay within 60 to 600 nM.

For `N#Cc1nccc(NC2CCN(Cc3ccc(-n4c(-c5cccnc5N)nc5ccc(-c6cn[nH]n6)nc54)cc3)CC2)n1` [Example 613, 4-((1-(4-(2-(2-Aminopyridin-3-yl)-5-(2H-1,2,3-triazol-4-yl)-3H-imidazo[4,5-b]pyridin-3-yl)benzyl)piperidin-4-yl)amino)pyrimidine-2-carbonitrile], the IC50 is less than 15 nM.

On to `N#Cc1nccc(N2CCN(Cc3ccc(-n4c(-c5cccnc5N)nc5ccc(C6=CCOCC6)nc54)cc3)CC2)n1` [Example 330, 4-(4-(4-(2-(2-Aminopyridin-3-yl)-5-(3,6-dihydro-2H-pyran-4-yl)-3H-imidazo[4,5-b]pyridin-3-yl)benzyl)piperazin-1-yl)pyrimidine-2-carbonitrile], for which the IC50 was less than 15 nM.

Consider `CCn1cc(-c2ccc3nc(-c4cccnc4N)n(-c4ccc(CN5CCC(Nc6ccnc(C#N)n6)CC5)cc4)c3n2)cn1` [Example 466, 4-((1-(4-(2-(2-Aminopyridin-3-yl)-5-(1-ethyl-1H-pyrazol-4-yl)-3H-imidazo[4,5-b]pyridin-3-yl)benzyl)piperidin-4-yl)amino)pyrimidine-2-carbonitrile], for which the IC50 is less than 15 nM.

The test is the same for the next values; noted with them: competitive tracer displacement in living cells, read-out: AKT1 E17K IC50.
Regarding `N#Cc1cccc(C(=O)NCc2ccc(-n3c(-c4cccnc4N)nc4cc(-c5ccccc5)cnc43)cc2)n1` [Example 168, N-(4-(2-(2-Aminopyridin-3-yl)-6-phenyl-3H-imidazo[4,5-b]pyridin-3-yl)benzyl)-6-cyanopicolinamide], the IC50 is 600 to 10000 nM.

Consider `N#Cc1ncnc(NC2CN(Cc3ccc(-n4c(-c5cccnc5N)nc5ccc(-c6ccccc6)nc54)cc3)C2)n1` [Example 300, 4-((1-(4-(2-(2-Aminopyridin-3-yl)-5-phenyl-3H-imidazo[4,5-b]pyridin-3-yl)benzyl)azetidin-3-yl)amino)-1,3,5-triazine-2-carbonitrile], for which the IC50 lay within 15 to 60 nM.

For the molecule `N#Cc1ccc(OC2CCN(Cc3ccc(-n4c(-c5cccnc5N)nc5ccc(-c6ccccc6)nc54)cc3)CC2)nc1` [Example 2, 6-((1-(4-(2-(2-Aminopyridin-3-yl)-5-phenyl-3H-imidazo[4,5-b]pyridin-3-yl)benzyl)piperidin-4-yl)oxy)nicotinonitrile], the IC50 fell in the range of 60 to 600 nM.

Turning to `N#Cc1ncccc1C(=O)NCc1ccc(-n2c(-c3cccnc3N)nc3cccnc32)cc1` [Example 98, N-(4-(2-(2-Aminopyridin-3-yl)-3H-imidazo[4,5-b]pyridin-3-yl)benzyl)-2-cyanonicotinamide], the IC50 lay within 600 to 10000 nM.

With `N#Cc1cccc(C(=O)N2CCN(Cc3ccc(-n4c(-c5cccnc5N)nc5ccc(-c6ccccc6)nc54)cc3)CC2)n1` [Example 138, 6-(4-(4-(2-(2-Aminopyridin-3-yl)-5-phenyl-3H-imidazo[4,5-b]pyridin-3-yl)benzyl)piperazine-1-carbonyl)picolinonitrile], the IC50 was 60 to 600 nM.

Regarding `C[C@H]1CN(Cc2ccc(-n3c(-c4cccnc4N)nc4ccc(-c5ccccc5)nc43)cc2)C[C@H](C)N1c1nccc(C#N)n1` [Example 193, 2-((2S,6S)-4-(4-(2-(2-Aminopyridin-3-yl)-5-phenyl-3H-imidazo[4,5-b]pyridin-3-yl)benzyl)-2,6-dimethylpiperazin-1-yl)pyrimidine-4-carbonitrile], the IC50 is 60 to 600 nM.

Regarding `N#Cc1cc(NC2CCN(Cc3ccc(-n4c(-c5cccnc5N)nc5ccc(-c6ccccc6)nc54)cc3)CC2)ncn1` [Example 91, 6-((1-(4-(2-(2-Aminopyridin-3-yl)-5-phenyl-3H-imidazo[4,5-b]pyridin-3-yl)benzyl)piperidin-4-yl)amino)pyrimidine-4-carbonitrile], the IC50 is less than 15 nM.

Consider `N#Cc1cncc(C(=O)NC2CCN(Cc3ccc(-n4c(-c5cccnc5N)nc5cccnc54)cc3)CC2)c1` [Example 26, N-(1-(4-(2-(2-aminopyridin-3-yl)-3H-imidazo[4,5-b]pyridin-3-yl)benzyl)piperidin-4-yl)-5-cyanonicotinamide], for which the IC50 lay within 600 to 10000 nM.

For the molecule `C[C@H]1CN(Cc2ccc(-n3c(-c4cccnc4N)nc4ccc(-c5ccccc5)nc43)cc2)CCN1c1ccnc(C#N)n1` [Example 206, (S)-4-(4-(4-(2-(2-Aminopyridin-3-yl)-5-phenyl-3H-imidazo[4,5-b]pyridin-3-yl)benzyl)-2-methylpiperazin-1-yl)pyrimidine-2-carbonitrile], the IC50 was 15 to 60 nM.

With `N#Cc1nc2c(C(=O)N3CCN(Cc4ccc(-n5c(-c6cccnc6N)nc6ccc(-c7ccccc7)nc65)cc4)CC3)cc(F)cc2s1` [Example 181, 4-(4-(4-(2-(2-Aminopyridin-3-yl)-5-phenyl-3H-imidazo[4,5-b]pyridin-3-yl)benzyl)piperazine-1-carbonyl)-6-fluorobenzo[d]thiazole-2-carbonitrile], the IC50 is 15 to 60 nM.

For `N#Cc1cccnc1C(=O)NC1CCN(Cc2ccc(-n3c(-c4cccnc4N)nc4ccc(-c5ccccc5)nc43)cc2)CC1` [Example 61, N-(1-(4-(2-(2-Aminopyridin-3-yl)-5-phenyl-3H-imidazo[4,5-b]pyridin-3-yl)benzyl)piperidin-4-yl)-3-cyanopicolinamide], the IC50 was less than 15 nM.

Turning to `N#Cc1ncnc(N2CC3(CN(Cc4ccc(-n5c(-c6cccnc6N)nc6ccc(-c7ccccc7)nc65)cc4)C3)C2)n1` [Example 303, 4-(6-(4-(2-(2-Aminopyridin-3-yl)-5-phenyl-3H-imidazo[4,5-b]pyridin-3-yl)benzyl)-2,6-diazaspiro[3.3]heptan-2-yl)-1,3,5-triazine-2-carbonitrile], the IC50 is less than 15 nM.

For the molecule `N#Cc1nc2c(C(=O)NCc3ccc(-n4c(-c5cccnc5N)nc5cccnc54)cc3)cc(F)cc2s1` [Example 174, N-(4-(2-(2-aminopyridin-3-yl)-3H-imidazo[4,5-b]pyridin-3-yl)benzyl)-2-cyano-6-fluorobenzo[d]thiazole-4-carboxamide], the IC50 fell in the range of 15 to 60 nM.

Turning to `N#Cc1cncc(C(=O)NCc2ccc(-n3c(-c4cccnc4N)nc4cccnc43)cc2)c1` [Example 123, N-(4-(2-(2-Aminopyridin-3-yl)-3H-imidazo[4,5-b]pyridin-3-yl)benzyl)-5-cyanonicotinamide], the IC50 fell in the range of 600 to 10000 nM.
